We go through 23 compounds from PubChem BioAssay AID256 (DTP/NCI, 2004).

SMILES strings stand for the structures. Inconclusive results and toxic doses are left out.

The assay concerns CD2F1 mice, L1210 leukemia ip, survival T/C. Kind of assay: NCI In Vivo Anticancer Drug Screen. Data for tumor model L1210 Leukemia (intraperitoneal) in CD2F1 (CDF1) mice. The settings on record: higher = longer survival. A digest of the protocol: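 Mice carrying a transplanted tumor received test compound or vehicle alone. The value is the measurement in the treated group divided by that in the vehicle-treated control group.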

Where [1] appears, read: endpoint: mean survival time, dose: 100.0 mg/kg/injection, schedule: Q04DX002 (ip), vehicle: saline with Tween-80.
Setting [2] is: endpoint: mean survival time, dose: 100.0 mg/kg/injection, schedule: Q04DX003 (ip), vehicle: saline with Tween-80.
[3] abbreviates: endpoint: mean survival time, dose: 200.0 mg/kg/injection, schedule: Q04DX003 (ip), vehicle: saline with Tween-80.
Setting [4] is: endpoint: mean survival time, dose: 400.0 mg/kg/injection, schedule: Q04DX003 (ip), vehicle: saline with Tween-80.
Where [5] appears, read: endpoint: mean survival time, dose: 25.0 mg/kg/injection, schedule: Q01DX009 (ip), vehicle: saline with Tween-80.
[6] abbreviates: endpoint: mean survival time, dose: 50.0 mg/kg/injection, schedule: Q01DX009 (ip), vehicle: saline with Tween-80.
The mark [7] stands for this setting: endpoint: mean survival time, dose: 100.0 mg/kg/injection, schedule: Q01DX009 (ip), vehicle: saline with Tween-80.
[8] abbreviates: endpoint: mean survival time, dose: 200.0 mg/kg/injection, schedule: Q01DX009 (ip), vehicle: saline with Tween-80.
[9] abbreviates: endpoint: mean survival time, dose: 400.0 mg/kg/injection, schedule: Q01DX009 (ip), vehicle: saline with Tween-80.
Setting [10] is: endpoint: mean survival time, dose: 100.0 mg/kg/injection, schedule: Q01DX009 (ip), vehicle: other.
Setting [11] is: endpoint: mean survival time, dose: 25.0 mg/kg/injection, schedule: Q04DX002 (ip), vehicle: saline with Tween-80.
The mark [12] stands for this setting: endpoint: mean survival time, dose: 50.0 mg/kg/injection, schedule: Q04DX002 (ip), vehicle: saline with Tween-80.

In the case of `COc1cc(/C=C(\C#N)c2ccc([N+](=O)[O-])cc2)ccc1O`, the T/C reads like this: under setting [1], 100 % of control; (endpoint: mean survival time, dose: 200.0 mg/kg/injection, schedule: Q04DX002 (ip), vehicle: saline with Tween-80) 87 % of control; (endpoint: mean survival time, dose: 400.0 mg/kg/injection, schedule: Q04DX002 (ip), vehicle: saline with Tween-80) 91 % of control.

Turning to `N=Cc1c(O)n(-c2ccccc2)c(=O)n(-c2ccccc2)c1=O`, the T/C under setting [2] was 94 % of control, the T/C under setting [3] is 94 % of control and the T/C under setting [4] was 92 % of control.

Consider `CCCCCCCCN(C)C`, for which the T/C reads like this: under setting [5], 91 % of control; under setting [6], 87 % of control.

Turning to `CN(C)CCNc1ccc(NCCN(C)C)c2c1C(=O)c1ccccc1C2=O`, the T/C is, setting by setting: (endpoint: mean survival time, dose: 3.75 mg/kg/injection, schedule: Q01DX009 (ip), vehicle: saline with Tween-80) 104 % of control; (endpoint: mean survival time, dose: 7.5 mg/kg/injection, schedule: Q01DX009 (ip), vehicle: saline with Tween-80) 107 % of control; (endpoint: mean survival time, dose: 15.0 mg/kg/injection, schedule: Q01DX009 (ip), vehicle: saline with Tween-80) 117 % of control; (endpoint: mean survival time, dose: 30.0 mg/kg/injection, schedule: Q01DX009 (ip), vehicle: saline with Tween-80) 150 % of control; (endpoint: mean survival time, dose: 60.0 mg/kg/injection, schedule: Q01DX009 (ip), vehicle: saline with Tween-80) 100 % of control.

On to `CN(C)S(=O)(=O)C=C(c1ccccc1)c1ccccc1`, for which the T/C was 107 % of control under setting [2], 96 % of control under setting [3] and 94 % of control under setting [4].

Take `Clc1ccccc1CCCBr`: the T/C under setting [7] was 96 % of control; the T/C under setting [2] is 92 % of control; the T/C under setting [8] is 104 % of control; the T/C under setting [3] is 97 % of control; the T/C under setting [9] was 106 % of control; the T/C under setting [4] was 88 % of control.

On to `NCCCC(N)(C(=O)O)C(F)F` (stereo unspecified), for which the T/C runs as follows: (endpoint: median survival time, dose: 50.0 mg/kg/injection, schedule: Q01DX009 (ip), vehicle: distilled water + alcohol) 102 % of control; (endpoint: median survival time, dose: 100.0 mg/kg/injection, schedule: Q01DX009 (ip), vehicle: distilled water + alcohol) 102 % of control; (endpoint: median survival time, dose: 200.0 mg/kg/injection, schedule: Q01DX009 (ip), vehicle: distilled water + alcohol) 105 % of control; (endpoint: median survival time, dose: 400.0 mg/kg/injection, schedule: Q01DX009 (ip), vehicle: distilled water + alcohol) 113 % of control; (endpoint: median survival time, dose: 800.0 mg/kg/injection, schedule: Q01DX009 (ip), vehicle: distilled water + alcohol) 103 % of control; (endpoint: median survival time, dose: 1.0 % drug in feed or water or air, schedule: Q#C X 1 (adlb), vehicle: water) 103 % of control. Also, the T/C (endpoint: median survival time, dose: 3.0 % drug in feed or water or air, schedule: Q#C X 1 (adlb), vehicle: water) was 116 % of control.

With `CCN1CCS(=O)(=O)C1=O`, the T/C by setting is: (endpoint: mean survival time, dose: 75.0 mg/kg/injection, schedule: Q01DX001 (ip), vehicle: other) 108 % of control; (endpoint: mean survival time, dose: 150.0 mg/kg/injection, schedule: Q01DX001 (ip), vehicle: other) 115 % of control.

As for `ClCCN(CCCl)c1ccc(N=Nc2ccccc2)cc1`, the T/C runs as follows: (endpoint: mean survival time, dose: 100.0 mg/kg/injection, schedule: Q04DX003 (ip), vehicle: Klucel (hydroxypropylcellulose) (HPC)) 102 % of control; (endpoint: mean survival time, dose: 200.0 mg/kg/injection, schedule: Q04DX003 (ip), vehicle: Klucel (hydroxypropylcellulose) (HPC)) 113 % of control; (endpoint: mean survival time, dose: 400.0 mg/kg/injection, schedule: Q04DX003 (ip), vehicle: Klucel (hydroxypropylcellulose) (HPC)) 113 % of control.

Regarding `O=[N+]([O-])c1ccc(SC(=S)N(c2ccccc2)c2ccccc2)c([N+](=O)[O-])c1`, the T/C (endpoint: mean survival time, dose: 100.0 mg/kg/injection, schedule: Q01DX001 (ip), vehicle: Klucel (hydroxypropylcellulose) (HPC)) was 87 % of control; the T/C (endpoint: mean survival time, dose: 200.0 mg/kg/injection, schedule: Q01DX001 (ip), vehicle: Klucel (hydroxypropylcellulose) (HPC)) is 91 % of control; the T/C (endpoint: mean survival time, dose: 400.0 mg/kg/injection, schedule: Q01DX001 (ip), vehicle: Klucel (hydroxypropylcellulose) (HPC)) is 100 % of control.

Take `CC(C)OC(CCC#N)c1ccc(Cl)cc1` (stereo unspecified): the T/C under setting [10] is 98 % of control; the T/C (endpoint: mean survival time, dose: 100.0 mg/kg/injection, schedule: Q04DX003 (ip), vehicle: other) was 94 % of control; the T/C (endpoint: mean survival time, dose: 200.0 mg/kg/injection, schedule: Q01DX009 (ip), vehicle: other) was 107 % of control; the T/C (endpoint: mean survival time, dose: 200.0 mg/kg/injection, schedule: Q04DX003 (ip), vehicle: other) is 94 % of control; the T/C (endpoint: mean survival time, dose: 400.0 mg/kg/injection, schedule: Q01DX009 (ip), vehicle: other) was 96 % of control; the T/C (endpoint: mean survival time, dose: 400.0 mg/kg/injection, schedule: Q04DX003 (ip), vehicle: other) was 93 % of control.

Regarding `O=[N+]([O-])c1ccc(N/N=C/C(Br)(Br)Br)c([N+](=O)[O-])c1`, the T/C was 102 % of control (endpoint: mean survival time, dose: 25.0 mg/kg/injection, schedule: Q04DX003 (ip), vehicle: saline with Tween-80) and 100 % of control (endpoint: mean survival time, dose: 50.0 mg/kg/injection, schedule: Q04DX003 (ip), vehicle: saline with Tween-80).

On to `COC(=O)CC(N)C(=O)O` (stereo unspecified), for which the T/C by setting is: (endpoint: median survival time, dose: 6.25 mg/kg/injection, schedule: Q01DX009 (ip), vehicle: saline) 100 % of control; (endpoint: median survival time, dose: 12.5 mg/kg/injection, schedule: Q01DX009 (ip), vehicle: saline) 97 % of control; (endpoint: median survival time, dose: 25.0 mg/kg/injection, schedule: Q01DX009 (ip), vehicle: saline) 98 % of control; (endpoint: median survival time, dose: 50.0 mg/kg/injection, schedule: Q01DX009 (ip), vehicle: saline) 94 % of control; (endpoint: median survival time, dose: 100.0 mg/kg/injection, schedule: Q01DX009 (ip), vehicle: saline) 98 % of control; (endpoint: median survival time, dose: 200.0 mg/kg/injection, schedule: Q01DX009 (ip), vehicle: saline) 97 % of control.

In the case of `Nc1ccn(C2OC(COC(=O)C34CC5CC(CC(C5)C3)C4)C(O)C2O)c(=O)n1` (stereo unspecified), the T/C was 201 % of control (endpoint: mean survival time, dose: 12.5 mg/kg/injection, schedule: Q01DX009 (ip), vehicle: other); 282 % of control (endpoint: mean survival time, dose: 25.0 mg/kg/injection, schedule: Q01DX009 (ip), vehicle: other); 365 % of control (endpoint: mean survival time, dose: 50.0 mg/kg/injection, schedule: Q01DX009 (ip), vehicle: other); 253 % of control under setting [10].

In the case of `c1ccc(-c2nnc(-c3ccccn3)o2)nc1`, the T/C is, setting by setting: under setting [11], 102 % of control; under setting [12], 98 % of control; under setting [1], 107 % of control.

Regarding `O=C1OC(=O)C2C3CC(C4OC34)C12` (stereo unspecified), the T/C under setting [7] is 103 % of control, the T/C under setting [8] was 97 % of control and the T/C under setting [9] was 87 % of control.

As to `C[C@]12CCCC[C@@H]1CC[C@@H]1[C@@H]2CC[C@]2(C)C(=O)CC[C@@H]12`, the T/C was 92 % of control under setting [2], 91 % of control under setting [3] and 89 % of control under setting [4].

Turning to `COc1ccc(-c2cc(C(=O)O)c3cccc(C)c3n2)cc1`, the T/C was 95 % of control under setting [6]; 95 % of control under setting [7]; 98 % of control under setting [2]; 95 % of control under setting [8]; 95 % of control under setting [3].

In the case of `CCN(Cc1cccc(S(=O)(=O)O)c1)c1ccc(C(=C2C=CC(=[N+](CC)Cc3cccc(S(=O)(=O)O)c3)C=C2)c2ccc(S(=O)(=O)O)cc2)cc1`, the T/C is, setting by setting: under setting [7], 103 % of control; under setting [2], 96 % of control; under setting [8], 97 % of control; under setting [3], 93 % of control; under setting [9], 95 % of control; under setting [4], 90 % of control.

For the compound `NC(=O)c1c2ccccc2nn1C1OC(CO)C(O)C1O` (stereo unspecified), the T/C is, setting by setting: (endpoint: mean survival time, dose: 100.0 mg/kg/injection, schedule: Q01DX005 (ip), vehicle: saline) 96 % of control; (endpoint: mean survival time, dose: 200.0 mg/kg/injection, schedule: Q01DX005 (ip), vehicle: saline) 102 % of control.

Consider `O=C1NC(=O)C2(CCc3ccccc32)N1` (stereo unspecified), for which the T/C runs as follows: under setting [2], 110 % of control; under setting [3], 98 % of control; under setting [4], 96 % of control.

For the compound `CCOC(=O)/C(C#N)=C\c1cc(OC)ccc1OC`, the T/C reads like this: under setting [5], 102 % of control; under setting [6], 94 % of control; under setting [7], 104 % of control.

With `CCCCN(C)c1ccc(N=Nc2cc(Cl)ccc2Cl)cc1`, the T/C is 96 % of control under setting [11], 101 % of control under setting [12] and 104 % of control under setting [1].
